The test system of one assay is Hra mutant plants. Briefly: Foliar application to Hra mutant plants. It counts as in vivo, Nicotiana tabacum.
Assay [1] has as its system ALS. Briefly: ALS assay of leaf extracts, wild type tobacco. It counts as biochemical, Nicotiana tabacum CV.NK326 or K14. The note with it: DPX-F6025 at 10ppb, activity without herbicide = 100 percent. As to the method: (§1) Approximately 1-2 weeks late shoots developing on kanamycin-selected explants were excised with a sterile scalpel and planted in A medium containing 100 mg/l kanamycin. Root formation on selective and non-selective media was recorded within 3 weeks. Shoots which rooted in kanamycin were transferred to soil and grown in a growth chamber as described above. After 3 to 5 weeks, but before flowering had occurred, leaf tissue was excised and used for ALS assays as described in Example VI. […] Individual flowers were bagged to permit self-fertilization without cross-pollination. Mature seeds were harvested and progeny tests were conducted to determine inheritance of the herbicide resistance trait. Seeds were surface sterilized as described above, dried and planted on SG medium (1/4 MS salts, 0.75% sucrose, 0.8% Agar) in the presence or absence of herbicide (DPX-F6025, Classic®). […] A segregration ratio of 3 resistant progeny to 1 sensitive indicated the presence of a single-site insertion of the SURB-Hra gene in the trasnformant which was stably inherited. […] Higher ratios of resistant to sensitive progeny indicated multiple insertions at unlinked positions in the genome. The 15/1 ratio indicates the presence of 2 unlinked SURB-Hra genes and 255/1 ratio indicates 4 unlinked SURB-Hra genes in the transformants K14 #40 and K14 #7, respectively.
Keep on ice. • 2. […] Read at OD 530.

Assay [2] concerns progeny of tobacco transformants. Briefly: Progeny test of seeds on SG medium with herbicide. It counts as in vivo, Nicotiana tabacum CV.NK326 or K14. As to the method:
as §1

The test system of assay [3] is ALS. Briefly: ALS assay of leaf extracts, wild-type tomato. It counts as biochemical, Lycopersicon esculentum var. Herbst Red Cherry. As to the method: After approximately 2-4 weeks, shoots developing off of kanamycin-selected cotyledons were excised and planted in OMS media containing 500 mg/L cefotaxime and 100 mg/L kanamycin. Tomato shoots which rooted in kanamycin after about 2-3 weeks were transferred to soil in 8" pots and covered with plastic bags. The plants were grown under mixed fluorescent and incandescent lights for a 12 hr, 24°C day; 12 hr, 20°C night cycle, with approximately 80% relative humidity, for one week before removing the plastic bags. The plants were grown for another 2-4 weeks before performing ALS assays. […]
Keep on ice. • 2. […] 16K rpm, 4°C. • 4. […] Incubate on ice for 30 minutes. • 6. […] Decant supernatant. • 7. Resuspend pellet in 1 ml cold column buffer. • 8. […] Let this run through column. • 9. Elute proteins with 2X volume of extract loaded. […] Incubate reaction for 1 hour, 30°C. • 12. […] Spin in microfuge 5 minutes. • 13. […] Read at OD 530.

In the next assay the test system is tobacco callus. Briefly: Growth of tobacco mutant callus (C3, S4, Hra) on herbicide. Format: cell-based, Nicotiana tabacum var. Xanthi. As to the method:
(§2) Callus cultures of sensitive tobacco (Nicotiana tabacum var. Xanthi) were exposed to sulfometuron methyl at 2 ppb according to the method described by Chaleff, U.S. 4,443,971. […] Plants were regenerated from Hra callus cultures. […] ALS activity in extracts of leaves of wild type and homozygous Hra mutant tobacco plants was determined.

Assay [4] concerns ALS. Format: biochemical, Nicotiana tabacum. The settings on record: C3 and S4 lines. On the procedure: as §2

`CC(C)C1(C)N=C(c2ncccc2C(=O)O)NC1=O.CC(C)N` (stereo not drawn): the “cross resistance to foliar application” value with Hra mutant plants is recorded as “cross resistant”.

Regarding “6-(4-isopropyl-4-methyl-5-oxo-2-imidazolin-2-yl)-m-toluic acid and p-toluic acid, methyl esters”, the “cross resistance to foliar application” value in the assay on Hra mutant plants is “cross resistant”.

Turning to `COc1nc(C)nc(NC(=O)NS(=O)(=O)c2ccccc2OCCCl)n1` [2-(2-chloroethoxy)-N-[(4-methoxy-6-methyl-1,3,5-triazin-2-yl)aminocarbonyl]benzenesulfonamide], the “cross resistance to foliar application” value in the assay on Hra mutant plants is “cross resistant”.

Turning to `CC(C)C1(C)N=C(c2nc3ccccc3cc2C(=O)O)NC1=O` (stereo not drawn) [2-[4,5-dihydro-4-methyl-4-(1-methylethyl)-5-oxo-1H-imidazol-2-yl]-3-quinolinecarboxylic acid], in the assay with Hra mutant plants, the “cross resistance to foliar application” value is “cross resistant”.

As for `COC(=O)c1ccccc1S(=O)(=O)NC(=O)Nc1nc(C)cc(C)n1` [2-[[(4,6-dimethylpyrimidin-2-yl)aminocarbonyl]aminosulfonyl]benzoic acid, methyl ester], the “cross resistance to foliar application” value in the assay on Hra mutant plants is listed as “cross resistant”.

Regarding `CCOC(=O)c1ccccc1S(=O)(=O)NC(=O)Nc1nc(Cl)cc(OC)n1` [2-[[(4-chloro-6-methoxypyrimidin-2-yl)aminocarbonyl]aminosulfonyl]benzoic acid, ethyl ester], the “cross resistance to foliar application” value with Hra mutant plants is reported as “cross resistant”.

With `COC(=O)c1c(C)cccc1S(=O)(=O)NC(=O)Nc1nc(C)cc(OC)n1` [2-[[(4-methoxy-6-methylpyrimidin-2-yl)aminocarbonyl]aminosulfonyl]-6-methylbenzoic acid, methyl ester], the “cross resistance to foliar application” value in the assay on Hra mutant plants is “cross resistant”.

In the case of `COc1nc(C)nc(NC(=O)NS(=O)(=O)c2ccccc2Cl)n1` [2-chloro-N-[(4-methoxy-6-methyl-1,3,5-triazin-2-yl)aminocarbonyl]benzenesulfonamide], the “cross resistance to foliar application” value in the assay on Hra mutant plants is on record as “cross resistant”.

Regarding `Cc1cc(C)n2nc(S(=O)(=O)Nc3c(C)cccc3[N+](=O)[O-])nc2n1` [5,7-dimethyl-N-(2-methyl-6-nitrophenyl)[1,2,4]triazolo[1,5-A]pyrimidin-2-sulfonamide], the “cross resistance to foliar application” value in the assay with Hra mutant plants was “cross resistant”.

Consider `CCC1C=NC(C2=NC(C)(C(C)C)C(=O)N2)=C(C(=O)O)C1` (stereo not drawn) [5-ethyl-4,5-dihydro-2-[4-methyl-4-(1-methylethyl)-5-oxo-1H-imidazol-2-yl]-3-pyridinecarboxylic acid], for which the “cross resistance to foliar application” value in the assay on Hra mutant plants is recorded as “cross resistant”.

Consider `COc1cc(OC)nc(NC(=O)NS(=O)(=O)c2c(Cl)ccc3c2S(=O)(=O)N(C)CC3)n1` [7-chloro-N-[(4,6-dimethoxypyrimidin-2-yl)aminocarbonyl]-3,4-dihydro-2-methyl-2H-1,2-benzothiazine-8-sulfonamide, S,S-dioxide], for which the “cross resistance to foliar application” value in the assay with Hra mutant plants is “cross resistant”.

`CCOC(=O)c1ccccc1S(=O)(=O)NC(=O)Nc1nc(Cl)cc(OC)n1` [DPX-F6025]: the “% Unhibited ALS Activity” value in the assay with ALS [1] (K14 wT) and with ALS [1] (NK326(wT)) was 7% throughout. In addition, the “Progeny Resistant/Sensitive” value in assay [2] (K14 #7, 100ppb DPX-F6025) is 990/4; in assay [2] (K14 #7, 1000bbp DPX-F6025) it was 109/1; in assay [2] (K14 #11, 100ppb DPX-F6025), 208/85; in assay [2] (K14 #11, 1000bbp DPX-F6025), 127/76; in assay [2] (K14 #27, 100ppb DPX-F6025), 129/45; in assay [2] (K14 #27, 1000bbp DPX-F6025) it was 108/42. In addition, the “Progeny Resistant/Sensitive” value was 192/46 in assay [2] (K14 #29, 100ppb DPX-F6025); 163/67 in assay [2] (K14 #29, 1000bbp DPX-F6025); 140/65 in assay [2] (K14 #32c, 100ppb DPX-F6025); 63/86 in assay [2] (K14 #32c, 1000bbp DPX-F6025); 218/18 in assay [2] (K14 #40, 100ppb DPX-F6025); 212/26 in assay [2] (K14 #40, 1000bbp DPX-F6025). Besides, the “Progeny Resistant/Sensitive” value in assay [2] (K14 #41, 100ppb DPX-F6025) is on record as 255/35; in assay [2] (K14 #41, 1000bbp DPX-F6025) it was 296/74; in assay [2] (K14 #42, 100ppb DPX-F6025), 162/74; in assay [2] (K14 #42, 1000bbp DPX-F6025), 77/72; in assay [2] (K14 #53, 100ppb DPX-F6025), 130/59; in assay [2] (K14 #53, 1000bbp DPX-F6025), 149/139. In addition, the “Progeny Resistant/Sensitive” value is on record as 137/55 in assay [2] (K14 #54A, 100ppb DPX-F6025); 100/72 in assay [2] (K14 #54A, 1000bbp DPX-F6025); 106/35 in assay [2] (K24 #31, 100ppb DPX-F6025); 99/34 in assay [2] (K24 #31, 1000bbp DPX-F6025); 163/49 in assay [2] (NK326 #9c, 100ppb DPX-F6025); 99/63 in assay [2] (NK326 #9c, 1000bbp DPX-F6025). The “Progeny Resistant/Sensitive” value in assay [2] (NK326 #10, 100ppb DPX-F6025) is 93/31; in assay [2] (NK326 #10, 1000bbp DPX-F6025), 96/24; in assay [2] (NK326 #10c, 100ppb DPX-F6025), 333/45; in assay [2] (NK326 #10c, 1000bbp DPX-F6025) it was 290/76; in assay [2] (NK326 #9d, 100ppb DPX-F6025), 288/67; in assay [2] (NK326 #9d, 1000bbp DPX-F6025), 150/58. Besides, the “Progeny Resistant/Sensitive” value in assay [2] (X14 #54, 100ppb DPX-F6025) is listed as 99/38; in assay [2] (X14 #54, 1000bbp DPX-F6025) it was 92/43; in assay [2] (nk326 #1, 100ppb DPX-F6025), 98/37; in assay [2] (nk326 #1, 1000bbp DPX-F6025) it was 90/35. For the same compound, the figures for the “Percent Uninhibited ALS Activity” value with ALS [3] (10ppb), with ALS [3] (100ppb) and in the assay on ALS [3] (1000ppb) were 15%, 5% and 4%, respectively.

Turning to `Cc1cc(C)n2nc(S(=O)(=O)Nc3c(Cl)cccc3Cl)nc2n1` [N-(2,6-dichlorphenyl)-5,7-dimethyl[1,2,4]triazolo [1,5-A]pyrimidin-2-sulfonamide], the “cross resistance to foliar application” value with Hra mutant plants is “cross resistant”.

For `Cc1cc(C)n2nc(S(=O)(=O)Nc3c(C)cccc3Cl)nc2n1` [N-(2-chloro-6-methylphenyl)-5,7-dimethyl[1,2,4]triazolo[1,5-A]pyrimidin-2-sulfonamide], the “cross resistance to foliar application” value with Hra mutant plants is listed as “cross resistant”.

In the case of `COc1cc(OC)nc(NC(=O)NS(=O)(=O)c2cccc3c2S(=O)(=O)C(C)C3)n1` (stereo not drawn) [N-[(4,6-dimethoxypyrimidin-2-yl)aminocarbonyl]-2,3-dihydro-2-methylbenzo[β]thiophene-7-sulfonamide, 1,1-dioxide], the “cross resistance to foliar application” value with Hra mutant plants is on record as “cross resistant”.

`COC(=O)c1ccccc1S(=O)(=O)NC(=O)Nc1nc(C)cc(C)n1` [sulfometuron methyl]: the “selective herbicide resistance conferred by the mutation” value in the assay on tobacco callus (C3 cell line (SURA-C3, proline-to-glutamine at position 197)) is given as “conferred resistance”. For the same compound, the “tolerated concentrations compared with that required to completely inhibit the growth of wild type callus” value with tobacco callus (Hra cell line) is “one thousand times greater”. Also, the “selective concentration which completely inhibits the growth” value in the assay with tobacco callus (S4 cell line) came out at 200 ppb. Also, the “resistance of ALS enzyme activity compared with ALS from wild type” value in the assay on ALS [4] was “one-hundred fold”.

Values taken from patent publication EP0257993B1, “Nucleic acid fragment encoding herbicide resistant plant acetolactate synthase” (priority 1986, dated 1988).
